Data published in US10688088B2 (priority 2015, dated 2020).
Read-outs that look alike come from different tables or passages of the source.

How the values were obtained:
Format in all cases: cell-based, Mycobacterium tuberculosis
[1] = tested on: M. tuberculosis T113, resistant to isoniazid (INH), rifampicin (RIF), ethambutol (ETB) and ofloxacin (OFX); set-up: MIC 2: MIC of the substance tested in combination / MIC 1: MIC of the substance tested alone: unit not given beside the values; details: for MIC 2: MIC of the substance tested in combination / MIC 1: MIC of the substance tested alone: strain T113
[2] = tested on: M tuberculosis T3609, resistant to ofloxacin (OFX) and streptomycin; set-up: MIC 2: MIC of the substance tested in combination / MIC 1: MIC of the substance tested alone: unit not given beside the values; details: for MIC 2: MIC of the substance tested in combination / MIC 1: MIC of the substance tested alone: strain T3609
M. tuberculosis = details: all the strains (H37Rv, T3609, T113)

CC1COc2c(N3CCN(C)CC3)c(F)cc3c(=O)c(C(=O)O)cn1c23 (stereo not drawn) [OFX, ofloxacin]
MIC 2: MIC of the substance tested in combination ([1]; combination MFL + OFX): 0.62 | MIC 1: MIC of the substance tested alone [1]: 1.25 | MIC 2: MIC of the substance tested in combination ([2]; combination MFL + OFX): 2.5 | MIC 1: MIC of the substance tested alone [2]: 5.0

C[C@H]1COc2c(N3CCN(C)CC3)c(F)cc3c(=O)c(C(=O)O)cn1c23 [LVX, levofloxacin]
MIC 2: MIC of the substance tested in combination ([1]; combination MEF + LVX): 0.31 | MIC 1: MIC of the substance tested alone [1]: 0.62 | MIC 2: MIC of the substance tested in combination ([2]; combination MEF + LVX): 2.50 | MIC 1: MIC of the substance tested alone [2]: 2.50

OC(c1cc(C(F)(F)F)nc2c(C(F)(F)F)cccc12)C1CCCCN1 (stereo not drawn) [Mefloquine, mefloquine]
cross-resistance (MIC across strains) (M. tuberculosis): no cross-resistance | MIC 2: MIC of the substance tested in combination ([1]; combination MEF + CPX): 0.31 | MIC 2: MIC of the substance tested in combination ([1]; combination MEF + LVX): 0.31 | MIC 2: MIC of the substance tested in combination ([1]; combination MFL + GAT): 0.15 | MIC 2: MIC of the substance tested in combination ([1]; combination MFL + INH): 3.12 | MIC 2: MIC of the substance tested in combination ([1]; combination MFL + LYN): 0.31 | MIC 2: MIC of the substance tested in combination ([1]; combination MFL + MOX): 0.31 | MIC 2: MIC of the substance tested in combination ([1]; combination MFL + OFX): 0.62 | MIC 2: MIC of the substance tested in combination ([1]; combination MFL + PYR): 0.62 | MIC 2: MIC of the substance tested in combination ([1]; combination MFL + SPR): 0.12 | MICcombination ([1]; strain T113, Table 2B): 25 µg/mL | MIC 2: MIC of the substance tested in combination ([2]; combination MEF + CPX): 3.12 | MIC 2: MIC of the substance tested in combination ([2]; combination MEF + LVX): 2.50 | MIC 2: MIC of the substance tested in combination ([2]; combination MFL + GAT): 0.31 | MIC 2: MIC of the substance tested in combination ([2]; combination MFL + INH): 0.015 | MIC 2: MIC of the substance tested in combination ([2]; combination MFL + MOX): 0.62 | MIC 2: MIC of the substance tested in combination ([2]; combination MFL + OFX): 2.5 | MIC 2: MIC of the substance tested in combination ([2]; combination MFL + PYR): 0.62 | MIC 2: MIC of the substance tested in combination ([2]; combination MFL + SPR): 0.62 | MICcombination ([2]; strain T3609, Tables 1B and 2A): 25 µg/mL

C[C@@H]1CN(c2c(F)c(N)c3c(=O)c(C(=O)O)cn(C4CC4)c3c2F)C[C@H](C)N1 [SPR, sparfloxacin]
MIC 2: MIC of the substance tested in combination ([1]; combination MFL + SPR): 0.12 | MIC 1: MIC of the substance tested alone [1]: 0.12 | MIC 2: MIC of the substance tested in combination ([2]; combination MFL + SPR): 0.62 | MIC 1: MIC of the substance tested alone [2]: 1.25

COc1c(N2C[C@@H]3CCCN[C@@H]3C2)c(F)cc2c(=O)c(C(=O)O)cn(C3CC3)c12 [MOX, moxifloxacin]
MIC 2: MIC of the substance tested in combination ([1]; combination MFL + MOX): 0.31 | MIC 1: MIC of the substance tested alone [1]: 0.25 | MIC 2: MIC of the substance tested in combination ([2]; combination MFL + MOX): 0.62 | MIC 1: MIC of the substance tested alone [2]: 1.25

O=C(O)c1cn(C2CC2)c2cc(N3CCNCC3)c(F)cc2c1=O [CPX, ciprofloxacin]
MIC 2: MIC of the substance tested in combination ([1]; combination MEF + CPX): 0.31 | MIC 1: MIC of the substance tested alone [1]: 0.62 | MIC 2: MIC of the substance tested in combination ([2]; combination MEF + CPX): 3.12 | MIC 1: MIC of the substance tested alone [2]: 5.00

NC(=O)c1cnccn1 [PYR, pyrazinamide]
MIC 1: MIC of the substance tested alone [1]: >100 | MIC 1: MIC of the substance tested alone [2]: >100

COc1c(N2CCNC(C)C2)c(F)cc2c(=O)c(C(=O)O)cn(C3CC3)c12 (stereo not drawn) [GAT, gatifloxacin]
MIC 2: MIC of the substance tested in combination ([1]; combination MFL + GAT): 0.15 | MIC 1: MIC of the substance tested alone [1]: 0.12 | MIC 2: MIC of the substance tested in combination ([2]; combination MFL + GAT): 0.31 | MIC 1: MIC of the substance tested alone [2]: 0.62

CC[C@@H](CO)NCCN[C@@H](CC)CO [ETB, ethambutol]
MIC 2: MIC of the substance tested in combination ([1]; combination MFL + ETB): 12.5 | MIC 1: MIC of the substance tested alone [1]: 25.0

CC(=O)NC[C@H]1CN(c2ccc(N3CCOCC3)c(F)c2)C(=O)O1 [LYN, linezolid]
MIC 2: MIC of the substance tested in combination ([1]; combination MFL + LYN): 0.31 | MIC 1: MIC of the substance tested alone [1]: 0.50

NNC(=O)c1ccncc1 [INH, isoniazid]
MIC 2: MIC of the substance tested in combination ([1]; combination MFL + INH): 3.12 | MIC 1: MIC of the substance tested alone [1]: 6.25 | MIC 2: MIC of the substance tested in combination ([2]; combination MFL + INH): 0.015 | MIC 1: MIC of the substance tested alone [2]: 0.5
